The values below are quoted from earlier work in patent publication US11382851B2, “Hair dye composition containing at least one organic silicon compound, a direct dye and a film forming hydrophobic polymer” (Henkel AG & Co. KGaA, priority 2018, dated 2022).

The conditions of the data set: about 25° C.

Consider `O=C([O-])C1=NN(c2ccc(S(=O)(=O)[O-])cc2)C(=O)C1N=Nc1ccc(S(=O)(=O)[O-])cc1.[Na+].[Na+].[Na+]` (centres unmarked) [Acid Yellow 23, trisodium salt of 4,5-dihydro-5-oxo-1-(4-sulfophenyl)-4-((4-sulfophenyl)azo)-1H-pyrazole-3-carboxylic acid], for which the “solubility in water (in words)” value is reported as “highly soluble in water”.

In the case of `CCN(Cc1cccc(S(=O)(=O)[O-])c1)c1ccc(C(=C2C=CC(=[N+](CC)Cc3cccc(S(=O)(=O)[O-])c3)C=C2)c2ccccc2S(=O)(=O)[O-])cc1.[Na+].[Na+]` [Acid Blue 9], the solubility in water entry is recorded as “more than 20 % by weight”.

As for `O=S(=O)([O-])c1ccc(N=Nc2c(O)ccc3ccccc23)cc1.[Na+]` [Acid Orange 7, sodium salt of 4-[(2-hydroxy-1-naphthyl)azo]benzene sulphonate], the solubility in water result is recorded as “more than 7 g/L”.

Turning to `Nc1cc(S(=O)(=O)[O-])cc2cc(S(=O)(=O)[O-])c(N=Nc3ccccc3)c(O)c12.[Na+].[Na+]` [Acid Red 33, disodium salt of 5-amino-4-hydroxy-3-(phenylazo)-naphthalene-2,7-disulphonate], the solubility in water result was “about 2.5 g/L”.

As to `O=C([O-])c1c(Cl)c(Cl)c(Cl)c(Cl)c1-c1c2c(Br)cc(=O)c(Br)c-2oc2c(Br)c(O)cc(Br)c12.O=C([O-])c1c(Cl)c(Cl)c(Cl)c(Cl)c1-c1c2c(Br)cc(=O)c(Br)c-2oc2c(Br)c(O)cc(Br)c12.[Na+].[Na+]` [Acid Red 92, disodium salt of 3,4,5,6-tetrachloro-2-(1,4,5,8-tetrabromo-6-hydroxy-3-oxoxanthen-9-yl)benzoic acid], the solubility in water entry was “greater than 10 g/L”.
